Values of other authors, collected in patent US20040096492A1, “Cicatrizant hydrocolloidal patch containing hyaluronic acid and chondroitin sulphate” (priority 2001, published 2004).

System: full thickness (300 mm^2) cutaneous wound
Settings: rats

For sodium chondroitin sulphate, the “residual area in the treated group relative to the control group” value (8 days after the second application of 30 mg) is given as “half”, the “reduction of the damaged surface (planimetry)” value (one or two applications of 30 mg, vs control) is given as “more rapid” and the “clinical signs connected with the lesion (edema-exudate)” value (vs control) is given as “decreased more quickly”.
